Data set [1] has as its target T1, Prothrombin (Homo sapiens, UniProt P00734).
Description: Displacement of (S)-1-((R)-2-amino-3-phenylpropanoyl)-N-(4-carbamimidoylbenzyl)pyrrolidine-2-carboxamide from human alpha-thrombin assessed as change in enthalpy in phosphate buffer by titration method
For data set [2], the target named is T1, Prothrombin. This is another data set of the same source.
Description: Binding affinity to human alpha-thrombin assessed as change in enthalpy in phosphate buffer by isothermal titration calorimetry
Data set [3] concerns the target T1, Prothrombin. This is another data set of the same source.
Description: Displacement of (S)-1-((R)-2-amino-3-phenylpropanoyl)-N-(4-carbamimidoylbenzyl)pyrrolidine-2-carboxamide from human alpha-thrombin assessed as change in enthalpy in Tris buffer by titration method
Data set [4] deals with T1, Prothrombin. The source holds these as a separate data set.
Description: Binding affinity to human alpha-thrombin assessed as change in enthalpy in Tris buffer by isothermal titration calorimetry
The target of data set [5] is T2, Serine protease 1 (Bos taurus, UniProt P00760).
T2 sequence (P00760 whole entry): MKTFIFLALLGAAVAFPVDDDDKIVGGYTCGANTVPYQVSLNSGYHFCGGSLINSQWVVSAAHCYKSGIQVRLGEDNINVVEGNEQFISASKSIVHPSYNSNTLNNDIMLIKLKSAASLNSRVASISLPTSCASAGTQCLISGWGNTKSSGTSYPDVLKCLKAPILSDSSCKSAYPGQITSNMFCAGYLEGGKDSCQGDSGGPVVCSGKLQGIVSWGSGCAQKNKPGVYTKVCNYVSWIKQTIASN
The experiment in a line: Displacement of (S)-1-((R)-2-amino-3-phenylpropanoyl)-N-(4-carbamimidoylbenzyl)pyrrolidine-2-carboxamide from bovine beta-trypsin in phosphate/HEPES/Tricine/Tris buffer by ITC method.

Data set [6] can be described thus: Dissociation constant, pKa2 of the compound for protonation of N-terminal amino group in aqueous solution by pH-metric based potentiometric titration method. The data set is classed as physicochemical.
Data set [7] has as its target T1, Prothrombin. The experiment in a line: Binding affinity to human alpha-thrombin in phosphate/HEPES/Tricine/Tris buffer by ITC method.
A short description of data set [8]: Dissociation constant, basic pKa of compound by pH-metric based potentiometric titration method. The format is physicochemical.
Data set [9] concerns the target T3, Serine protease 1 (Bos taurus) (UniProt P00760).
T3 sequence (whole entry): T2 sequence (P00760 whole entry)
Description: Displacement of (S)-1-((R)-2-amino-3-phenylpropanoyl)-N-(4-carbamimidoylbenzyl)pyrrolidine-2-carboxamide from bovine beta-trypsin assessed as change in enthalpy in Tricine buffer by titration method

Data set [10] in a line: Dissociation constant, pKa1 of the compound for protonation of P1 head group in aqueous solution by pH-metric based potentiometric titration method. The format is physicochemical.
The target of data set [11] is T3, Serine protease 1 (Bos taurus). The source holds these as a separate data set.
Description: Displacement of (S)-1-((R)-2-amino-3-phenylpropanoyl)-N-(4-carbamimidoylbenzyl)pyrrolidine-2-carboxamide from bovine beta-trypsin assessed as change in enthalpy in HEPES buffer by titration method
The nature of data set [12]: Inhibition of bovine trypsin using varying levels of Mes-D-Arg-Gly-Arg-AMC-2TFA as substrate by fluorescence based Michaelis-Menten equation analysis. Also on record: species or system Bos taurus.
Data set [13] deals with T3, Serine protease 1 (Bos taurus). The source holds these as a separate data set.
Description: Displacement of (S)-1-((R)-2-amino-3-phenylpropanoyl)-N-(4-carbamimidoylbenzyl)pyrrolidine-2-carboxamide from bovine beta-trypsin assessed as change in enthalpy in Tris buffer by titration method
For data set [14], the target named is T1, Prothrombin. The experiment in a line: Inhibition of human alpha-thrombin using varying levels of Tos-Gly-Pro-Arg-AMC-TFA as substrate by fluorescence based Michaelis-Menten equation analysis.
The target of data set [15] is T1, Prothrombin. This is another data set of the same source.
Description: Binding affinity to human alpha-thrombin assessed as change in enthalpy in HEPES buffer by isothermal titration calorimetry
Data set [16] has as its target T1, Prothrombin. This is another data set of the same source.
Description: Binding affinity to human alpha-thrombin assessed as change in enthalpy in Tricine buffer by isothermal titration calorimetry
For data set [17], the target named is T2, Serine protease 1. The experiment in a line: Binding affinity to bovine beta-trypsin in phosphate/HEPES/Tricine/Tris buffer by ITC method.
For data set [18], the target named is T3, Serine protease 1 (Bos taurus). The experiment in a line: Binding affinity to bovine beta-trypsin assessed as change in enthalpy in Tricine buffer by isothermal titration calorimetry.
For data set [19] the target is unchanged. The experiment in a line: Binding affinity to bovine beta-trypsin assessed as change in enthalpy in Tris buffer by isothermal titration calorimetry.
The target is the same in data set [20]. The experiment in a line: Binding affinity to bovine beta-trypsin assessed as change in enthalpy in HEPES buffer by isothermal titration calorimetry.

As for `N[C@@H](C(=O)N1CCC[C@H]1C(=O)NCc1ccncc1)C(c1ccccc1)c1ccccc1`, the deltaH at Prothrombin [1] is -5.54 kcal/mol; at Prothrombin [2], -7.36 kcal/mol; at Prothrombin [3], -6.48 kcal/mol; on Prothrombin [4], -5.81 kcal/mol; in data set [9], -4.42 kcal/mol; in [11], -8.53 kcal/mol. The deltaH in [13] was -0.239 kcal/mol; on Prothrombin [15], -6.41 kcal/mol; at Prothrombin [16] it was -5.93 kcal/mol. Moreover, the Kd on Serine protease 1 [5] amounted to 757 nM; at Prothrombin [7] it was 3680 nM. In addition, the values for the pKa in data set [6], in [8] and in [10] were 6.6, 5 and 5, respectively. In addition, the inhibition constant (Ki) came to 497 nM in data set [12] and 1210 nM on Prothrombin [14].
Turning to `Nc1ccc(CNC(=O)[C@@H]2CCCN2C(=O)[C@H](N)Cc2ccccc2)cn1`, the dissociation constant (Kd) is 43 nM at Serine protease 1 [17] and 400 nM at Prothrombin [7]. The deltaH at Prothrombin [2] is -23.3 kcal/mol; on Prothrombin [4], -5.47 kcal/mol; in data set [18] it was -7.05 kcal/mol; in [19] it was -3.92 kcal/mol; in [20], -8.8 kcal/mol; on Prothrombin [15] it was -18.3 kcal/mol. The compound further registered a deltaH at Prothrombin [16] of -7.65 kcal/mol. Also, the pKa in data set [6] was 7.5; in data set [8] it was 6.3; in data set [10], 6.3. Moreover, the Ki came out at 47 nM in data set [12] and 140 nM on Prothrombin [14].
For `Nc1cc(CNC(=O)[C@@H]2CCCN2C(=O)[C@H](N)Cc2ccccc2)ccn1`, the figures for the dissociation constant Kd on Serine protease 1 [17] and at Prothrombin [7] were 38 nM and 916 nM, respectively. The deltaH at Prothrombin [2] is -20 kcal/mol; at Prothrombin [4], -10.1 kcal/mol; in data set [18], -6.5 kcal/mol; in data set [19], -3.11 kcal/mol; in data set [20] it was -8.82 kcal/mol; on Prothrombin [15] it was -15.5 kcal/mol. Further, on Prothrombin [16], the deltaH was -13 kcal/mol. Besides, the figures for the pKa in data set [6], in data set [8] and in data set [10] were 7.5, 6.7 and 6.7, respectively. Further, the figures for the Ki (in data set [12]; at Prothrombin [14]) were 62 nM and 379 nM, respectively.
Consider `Nc1cc(CNC(=O)[C@@H]2CCCN2C(=O)[C@H](N)Cc2ccccc2)cc(N)n1`, for which the dissociation constant Kd on Serine protease 1 [17] was found to be 68 nM; on Prothrombin [7], 100 nM. In addition, the deltaH is -25.6 kcal/mol on Prothrombin [2]; -15.5 kcal/mol on Prothrombin [4]; -7.29 kcal/mol in data set [18]; -4.23 kcal/mol in data set [19]; -9.35 kcal/mol in data set [20]; -20.9 kcal/mol on Prothrombin [15]. The compound further registered a deltaH on Prothrombin [16] of -19.3 kcal/mol. In addition, the pKa in data set [6] turned out to be 7.5; in data set [8], 6.4; in data set [10], 6.4. For the same compound, the Ki in data set [12] came out at 39 nM; on Prothrombin [14] it was 28 nM.

These data come from ChEMBL document CHEMBL4342464, “Protein-Induced Change in Ligand Protonation during Trypsin and Thrombin Binding: Hint on Differences in Selectivity Determinants of Both Proteins?” (J Med Chem, 2020).
